Reference: patent publication US10376584B2, “Stable pharmaceutical formulations of methylnaltrexone” (Progenics Pharmaceuticals, Inc., priority 2003, dated 2019)

Test: Autoclaving of methylnaltrexone solutions (122° C., 15 lbs. pressure for 20 min), degradation products
Assay type: physicochemical
Protocol: Applicants have discovered that during the autoclaving process, methylnaltrexone in aqueous solution tends to degrade to a surprising extent. The amount of degradation resulting from simple autoclaving (122° C., 15 lbs. pressure for 20 min.) can be as high as […]. The degradation products are depicted in FIG. 1, and appear to include at least two predominant degradants having relative retention times (RRT) of 0.72 (2.828 minutes) and 0.89 (3.435 minutes) and, with other minor forms as can be observed. The degradant identified by the 0.72 RRT peak appears in small amounts, 0.074, immediately upon dissolving the methylnaltrexone into solution and increases overtime with storage or autoclaving 0.25%. The degradant identified by the 0.89 RRT peak appears only after storage over time or after autoclaving (<0.05% and 0.724%, respectively). Applicants also have discovered that methylnaltrexone is unstable in aqueous solutions when stored at room temperature or even at 4° C. for significant (but commercially necessary) periods of time such as 6 months, 12 months or even two years. Degradation occurs without regard to whether the aqueous solution was previously autoclaved or filter sterilized. It would be desirable to stabilize formulations of methylnaltrexone such that following the autoclaving process or following storage (or both autoclaving and storage), the amount of the total degradation products would be less than 2.0%, 1.5%, 1.0%, 0.5%, 0.25%, and even 0.125%.
The invention provides stable formulations of methylnaltrexone. By stable solutions of methylnaltrexone, it is meant that following autoclaving at 122° C., 15 lbs. pressure for 20 minutes, the methylnaltrexone degradation products resulting from such conditions are not more than 2% of the total methylnaltrexone present in a given solution. […]

In the case of C[N@+]1(CC2CC2)CC[C@]23c4c5ccc(O)c4O[C@H]2C(=O)CC[C@@]3(O)[C@H]1C5 [methylnaltrexone], the “levels of degradation products after autoclaving with buffering agents” value (buffers in concentrations ranging from 0.25 mM to 25 mM) is reported as “Acceptable levels of degradation products”, the “stability to autoclaving by adjustment of pH alone” value (pH between 4.25 and 6) is reported as “not sufficient to produce stable formulations” and the “pH of the autoclaved sample” value (pH set between 3.0 and 6.0 with pH-adjusting acid or base prior to autoclaving, no buffer) is reported as “about 7.0”.
